{"source": "patent US8853188B2", "about": "“Compositions and methods for cancer treatment” (Women and Infants Hospital of RI, Inc., priority 2005, dated 2014)", "key": {"panel of cancer cells": {"system": "panel of cancer cells", "assay": "Antiproliferative and cytotoxic activity on a panel of cancer cells (MTS, 96 well plates)", "type": "cell-based", "description": "A panel of cancer cells is used to evaluate the antiproliferative and cytotoxic activities of B3CD and related analogs. The cells include colon (Colo), breast (MCF-7 and MDA-MB-231), lung (A549), prostate PC3 and LNCaP), melanoma (SK-MEL-31), renal (Caki-1), ovarian (OVCAR-3), bladder (T24), pancreatic (BxPC-3), hepatocarcinoma (Hep3B), neuroblastoma (SH-SY5Y), glioblastoma (SNB-19), medulloblastoma (D283 Med), skin (LS123), squamous cell carcinoma (Scc-15), acute promyelocytic leukemia (APL), myeloblastic (HL-60) and myelomonocytic (U937).\nThe anticancer activity testing will be carried out by high throughput screening. The cancer cells will be cultured in 96 well plates and treated with the library. B3CD has been tested in this system and was effective at a 200 nM dose. For general screening, 2-200 nM doses will be used. Cells will be treated with the compounds for 12, 24, 48 and 72 hours. A 96 well plate format allows testing a large number of compounds simultaneously. An MTS based colorimetric method of evaluation of proliferation will be utilized, which is widely used in cancer drug discovery. The fingerprint of profiled drugs using 60 cell-line screening program by NCl using COMPARE algorithm (Paull K D, Shoemaker R H, Hodes L, Monks A, Scudiero D A, Rubinstein L, Plowman J, Boyd M R. Display and analysis of patterns of differential activity of drugs against human tumor cell lines: development of mean graph and COMPARE algorithm. J Natl Cancer Inst 1989; 81:1088).\n(§1) Materials and methods. Proliferation was measured by MTS and BrdU incorporation assays. Apoptosis was assessed by DNA fragmentation, Cell Death Detection ELISA and caspase-3-assays. Effect of B3CD on TrkB signaling by BDNF was assessed by Western Blot analysis of AKT and ERK phosphorylation. The effect on angiogenesis was determined by chick chorioallantoic membrane (CAM) assay and aortic ring assay."}, "caspase-3 [1]": {"system": "caspase-3", "assay": "Caspase-3 activation with specific substrate in SK-N-SH cells", "type": "cell-based", "settings": "250 nM, compared to vehicle treated control", "description": "Caspases are integral to apoptosis in cells. Following the treatment of SK-N-SH cells with 250 nM B3CD, activation of caspase-3 was measured by using specific substrate."}, "SK-N-SH cells [2]": {"system": "SK-N-SH cells", "assay": "DNA laddering by agarose gel electrophoresis", "type": "cell-based", "settings": "250 nM, 48 hours", "description": "(§2) Initially, during regular microscopic examination of the B3CD treated cells, the cells were condensing and floating in the culture dishes showing indications of apoptosis. In order to determine apoptosis, SK-N-SH and SH-SY5Y cells were treated with 250 nM B3CD for 48 hours. DNA was isolated and analyzed by agarose gel electrophoresis."}, "SH-SY5Y cells": {"system": "SH-SY5Y cells", "assay": "DNA laddering by agarose gel electrophoresis", "type": "cell-based", "settings": "250 nM, 48 hours", "description": "as §2"}, "SMS-KCNR cells": {"system": "SMS-KCNR cells", "assay": "Proliferation of apoptosis-resistant NB cells", "type": "cell-based", "settings": "data not shown", "description": "NB is characterized with defective apoptotic pathways. […] Neuronal (N-) type SH-SY5Y and IMR-32 cells, and stromal (S-) type SMS-KCNR cells which are resistant to apoptosis were used. […] A defect in caspase-8 or its activation causes resistance to apoptosis and in turn to chemotherapy in all these cells. On the other hand, these cells carry intact intrinsic apoptotic pathway, and executioner caspase-3 is activated by caspase-9 route.\n(§3) In depth studies were carried out to assess the activation of intrinsic and extrinsic apoptotic pathways. […] Caspase-9 was activated by B3CD in these cells (FIG. 10B), indicating an active role of intrinsic pathway of apoptosis. […] However, caspase-8 was undetectable in IMR-32 and SH-SY5Y cells."}, "AKT": {"system": "AKT", "assay": "Western Blot analysis of AKT phosphorylation", "type": "cell-based", "settings": "neuroblastoma cells", "description": "as §1\nNeuroblastoma cells were treated with B3CD for 48 hrs. […] AT 0.5 nM, B3CD inhibited >50% (p<0.035) and >90% at […] (p<0.01) viability and proliferation respectively."}, "Caspase-9": {"system": "Caspase-9", "assay": "Caspase-9 immunoblot in NB cells", "type": "cell-based", "settings": "SMS-KCNR, IMR-32 and SH-SY5Y cells", "description": "FIG. 10B. Caspase-9 immunoblot.\nas §3"}, "caspase-3 [3]": {"system": "caspase-3", "assay": "Caspase-3 immunoblot in NB cells", "type": "cell-based", "settings": "SMS-KCNR, IMR-32 and SH-SY5Y cells", "description": "FIG. 10A. Caspase-3 immunoblot.\nas §3"}, "SK-N-SH cells [4]": {"system": "SK-N-SH cells", "assay": "Cell viability by MTS assay", "type": "cell-based", "settings": "48 hours", "description": "SK-N-SH and SH-SY5Y neuroblastic cells were treated with increasing doses of calcidiol or B3CD (0, 25, 50, 100, 200, 400 and 800 nM) for 48 hours. Cell viability was assessed by MTS assay and proliferation was determined by BrdU incorporation assay."}, "caspase-8": {"system": "caspase-8", "assay": "Caspase-8 immunoblot in NB cells", "type": "cell-based", "settings": "SMS-KCNR cells", "description": "FIG. 10D. Caspase-8 immunoblot.\nas §3\nAlthough caspase-8 was detected in SMS-KCNR cells, it was not activated by B3CD (FIG. 10D). Actin immunoblotting was used as loading control in the above studies (data not shown)."}, "[5]": {"settings": "mouse, in vivo", "description": "FIG. 6A. In vivo studies to determine apparent systemic toxicity of B3CD. Mice were injected with the specified amounts of B3CD (i.p.) once in 48 hr for 28 days. The animals were weighed to assess the effect of B3CD on change in body weight.\nFIG. 6B. At the end of the experiment (6A) mice were sacrificed and blood collected to estimate serum calcium as a measure of hypercalcemia.\nA major concern was the potential systemic toxicity of B3CD due to hypercalcemia since B3CD (FIG. 1) is a derivative of calcidiol, which is a family member of calcitriol (Schmidt-Gayk H, Bouillon R, Roth H J. Measurement of vitamin D and its metabolites (calcidiol and calcitriol) and their clinical significance. Scand J Clin Lab Invest Suppl. 1997; 227:35-45). Therapeutic doses of calcitriol lead to increased serum calcium and consequently death; therefore, hypercalcemia is a hallmark of lethality of pharmacologic doses of calcitriol. In the event that further testing in vivo might show lethal calcemic side effects, preliminary studies were carried out to determine any overt toxic effects in a murine model.\nThe effect of B3CD on serum calcium levels in SCID mice was tested. These studies were carried out in Boston University School of Medicine, Boston, Mass., in accordance with institutional guidelines. B3CD, calcidiol and calcitriol were formulated in 80% polyethylene glycol in PBS and were administered as i.p. injections once in 48 hours for 28 days. Animals were euthanized, sera collected and analyzed immediately for serum calcium in the hospital core facility. The animals were divided into 4 groups of 5 animals each."}}}
{"compound": "C=C1CC[C@H](OC(=O)CBr)C/C1=C/C=C1\\CCC[C@]2(C)[C@@H]([C@H](C)CCCC(C)(C)O)CC[C@@H]12", "note": "[B3CD, bromoacetic acid 3-{2-[1-(5-hydroxy-1,5-dimethyl-hexyl)-7a-methyl-octahydro-inden-4-ylidene]-ethylidene}-4-methylene-cyclohexyl ester]", "values": [{"measurement": "anticancer activity in high throughput screening system", "setting": "panel of cancer cells; 200 nM dose", "value": "effective"}, {"measurement": "cytotoxicity", "setting": "panel of cancer cells; preliminary studies", "value": "exhibits cytotoxicity"}, {"measurement": "increase of caspase-3 activity", "setting": "caspase-3 [1]", "value": "~6", "unit": "fold"}, {"measurement": "DNA laddering", "setting": "SK-N-SH cells [2]", "value": "distinct DNA laddering pattern characteristic of apoptosis"}, {"measurement": "DNA laddering", "setting": "SH-SY5Y cells", "value": "distinct DNA laddering pattern characteristic of apoptosis"}, {"measurement": "inhibition of proliferation", "setting": "SMS-KCNR cells", "value": "dose dependent inhibition of proliferation"}, {"measurement": "phosphorylation of AKT", "setting": "AKT", "value": "inhibited phosphorylation"}, {"measurement": "caspase-9 activation (immunoblot)", "setting": "Caspase-9", "value": "activated"}, {"measurement": "caspase-3 activation (immunoblot)", "setting": "caspase-3 [3]", "value": "activated"}, {"measurement": "viability of SK-N-SH cells (in words)", "setting": "SK-N-SH cells [4]; 0-800 nM", "value": "dose dependent decrease"}, {"measurement": "viability at 0.2 µM", "setting": "SK-N-SH cells [4]; Homo sapiens, SK-N-SH, 200 nM", "value": "< 20", "unit": "%"}, {"measurement": "caspase-8 activation (immunoblot)", "setting": "caspase-8", "value": "not activated"}, {"measurement": "clinical signs (lethargy, tolerance to handling, mobility)", "setting": "[5]", "value": "showed no such signs"}, {"measurement": "toxicity in murine models", "setting": "[5]", "value": "no toxicity"}]}
